Measured values as given in PMC8277129, “Bioconcentration of Several Series of Cationic Surfactants in Rainbow Trout” (Environmental Science & Technology, 2021).
“And” between values parts separate entries of the source, which are not always exact repeats. Equal values may be shown once. Read-outs that look alike come from different tables or passages of the source.

Experiments:
[1] = system: juvenile rainbow trout (Oncorhynchus mykiss); assay: Bioconcentration (BCF) experiment based on OECD 305, aqueous exposure to surfactant mixtures; type: in vivo; conditions: for uptake rate constant (kU): 14 d exposure, 28 d depuration; for uptake rate constant (kU) / BCF (kU/kT) / measured total elimination rate constant (kT): whole fish
Protocol: (§1) Juvenile rainbow trout were purchased from EM lax in Västervik, Sweden, and held in the aquaria facility for one month prior to starting the experiment on August 28, 2018. Ethical approval for the experiments was obtained from Stockholm’s djurförsöksetiska nämnd (decision 9967–2017). The experiment was conducted in six 350 L fiberglass aquaria with a water renewal rate of 1.5 L min^–1 corresponding to a turnover time of […]. The water temperature and the air temperature in the aquaria room were 10 °C. The lighting was dim and programmed on a 12 h light/12 h dark cycle.
(§2) Three BCF experiments were conducted, one each for MIX1 and MIX2 at pH ∼7.6 (denoted MIX1 and MIX2 in the following), and one for MIX1 at pH ∼6.2 (MIX1pH). Each experiment consisted of a 14 d exposure phase and a 28 d depuration phase. There were also two control aquaria where unexposed fish were kept, one at pH 7.6 and one at pH 6.2. For the pH 6.2 aquaria, a 20% v:v formic acid solution was pumped into a premixing basin where it was mixed with the inflowing water before entering the aquarium. pH sensors monitored pH in the premixing basin and the aquarium. The pH for the MIX1 and MIX2 experiments was governed by the pH of the water supply. Water samples were collected at 8 time points during each experiment for the determination of pH and alkalinity. Water samples were collected daily during the exposure phase for determination of total organic carbon (TOC), which was measured with NDIR detection after acidification, purging and high-temperature catalytic combustion (Shimadzu TOC-L).
(§3) For the exposure phase, a methanol solution of the test chemical mixture was infused continuously at 4.0 μL min^–1 into the water inflow of the aquarium using a syringe pump. The target concentrations of the chemicals in water ranged from 2.5 to 100 μg L^–1 (Table 1). They were selected to be as low as possible to minimize the risk of toxic effects while still being high enough to enable collection of high-quality data, building on the results of the tissue distribution experiment.[32] The syringe pump was started in an aquarium containing no fish. After 16 h to allow the concentrations to stabilize, ∼80 rainbow trout were transferred to the aquarium. Over the following 14 d water samples were collected and fish were sacrificed according to the schedule in Table S5. The remaining fish were then transferred to a second aquarium that received water without chemical addition. Over the following 28 d further water samples were collected and fish were sacrificed (Table S5).
(§4) At each fish sampling, 4–6 fish were sacrificed. Fish were also sampled periodically from the control aquaria. Following stunning and severance of the spinal cord, the fish were placed in a polyethylene bag, weighed, and immediately frozen at −20 °C. The median fish weight at sacrifice was 10.94 g, with a 25th and 75th percentile of 8.43 and 13.58 g, respectively.
(§5) Three fish from each time point were prioritized for analysis based on proximity to the median fish weight. Each fish was semithawed, cut into 3–4 pieces, and homogenized with an Ultra-Turrax device. 150 mg of the homogenate was transferred to a preweighed 13 mL polypropylene tube, centrifuged to a pellet, and weighed. 50 μL of methanol was added and the prepared aliquot was frozen. For extraction internal standard solution (isotope labeled standards of Q10 (D21), Q14 (D29), and P16 (D33)), 3 mL of methanol and 3 steel balls (3.2 mm diameter) were added to the prepared aliquot. This mixture was mixed in a bullet blender for 1 min, and then placed in an ultrasound bath at 50 °C for 60 min. Following centrifugation, the supernatant was decanted and the extraction was repeated. The extracts were combined and a portion corresponding to 25–50 mg homogenate was cleaned up on a weak cationic exchange SPE column (WCX, 60 mg) as described elsewhere.[32] […]

[2] = system: gills of rainbow trout; assay: Mechanistic one-box mass balance model of gill uptake and elimination; conditions: for predicted gill elimination rate constant eq 1 (k2): from measured kU and modeled αW, αB, DFW
Text: To gain more mechanistic insight into the results, we formulated a simple one-box mass balance model of chemical bioconcentration in fish that considered diffusive uptake and elimination across the gills as well as biotransformation.[33] The flow of water across the gills and the flow of blood through the gills were modeled as perfusion limited resistances that constrain gill uptake and elimination. […] Consequently, these resistances are unknowns. Ion trapping effects caused by differences in pH between water at the gill surface and blood in the gills are considered, drawing on previous work on the uptake and elimination of ionizable organic chemicals across the gills of rainbow trout.[22],[23] Partitioning of the chemical from the dissolved phase into blood and into whole fish was calculated as the product of the membrane lipid–water distribution ratio (DMLW,T, including partitioning of both the neutral and the charged forms) and the fraction of membrane lipid in blood and whole fish. A detailed description of the model is provided in the SI (Text S3).
The contribution of the water perfusion and blood perfusion resistances were compared with the overall resistance for transport across the gills from water to blood (RW→B), which was calculated from the measured kU according to equation S4.3. […] For all of the other chemicals the blood resistance is insignificant compared to the overall resistance.
The rate constant for elimination across the gills, k2, can be defined as follows: [drawing 1] 1 where αB and αW are the neutral fractions of the chemical in the blood and in the water at the gill surface, respectively, and DFW is the fish-water distribution ratio of the chemical at the pH of blood (8.1) (see Text S3). Using the measured kU and the values of αW, αB, and DFW estimated for the model, k2 was calculated (Table 2).

[3] = ref Timmer and Droge (2017); cited from earlier work
[4] = design: method as in Perrin 1965, SRC, REACH, Perrin 1972, Hall 1957; conditions: selected per amine type, weighted from simulated and experimental analogue data; ref Perrin 1965, SRC, REACH, Perrin 1972, Hall 1957; cited from earlier work
[5] = system: rainbow trout; assay: Semiquantitative screening of demethylation metabolites in exposed fish; type: in vivo; conditions: last time point of the exposure phase
Protocol: Semiquantitative screening of possible demethylation metabolites was conducted in the fish collected at the last time point of the exposure phase. […] Demethylation of T10 to form S10 was reported in an in vitro S9 assay, and it was proposed that this is an important elimination mechanism for tertiary amines in fish.[27] There is in vitro evidence that demethylation of secondary alkylamines also occurs, which will be reported elsewhere.[37]

[6] = Bioconcentration (BCF) experiment based on OECD 305, aqueous exposure to surfactant mixtures; type: in vivo, Oncorhynchus mykiss; conditions: whole fish, read-out: measured total elimination rate constant (kT) (converted)
Protocol: as §1, §2, §3, §4, §5

[7] = system: rainbow trout; design: method as in PMID 32062967; conditions: after the 7 d exposure; cited from earlier work
[8] = Membrane-water partition coefficient of the charged form (DMLW,C); type: physicochemical; conditions: extrapolated from Timmer and Droge (2017)
Protocol: Table S3: Test chemical properties
Abbr. pKa$ Log DOC§ Log DMLW,C# SMILES
$ pKa values derived/reported for different alkylamine type analogues. The selected value is expected to be independent of chain length for all longer chain homologues, using a weighted value obtained from the different sources with more focus on experimental data:
Algorithm / simulated data Experimental reference data (25 °C)
Chem ACD/ COSMO- selected
(https://echa.europa.eu/registration-dossier/-

[9] = Estimated neutral fraction in water at the fish gill surface; conditions: pH 7.6 experiments; estimated pKa of 10
Text: The BCF was markedly lower for the QACs compared to tertiary amines with the same chain length: a factor >670 for Q10 compared to T10, and a factor 160 for Q14 compared to T14 (Figure 1, upper panel). The prominent structural difference between the QACs and the analogous tertiary amines is that the former are permanently charged, while the latter exist in both a charged (protonated) and a neutral form.
Text S5: Estimation of pH at the gill surface
The pH at the surface of the gills was calculated using the following system of 5 equations:
alk = 2 × [CO2 ― ] + [HCO ― ] (3)
DIC = [H CO ] + [HCO ― ] + [CO2 ― ] (4) where alk is alkalinity and DIC is total dissolved inorganic carbon. The dissociation constants K1 and K2 were estimated from water temperature according to equations 9.23 and 9.24 in http://www-naweb.iaea.org/napc/ih/documents/global_cycle/vol%20I/cht_i_09.pdf The measured pH and alkalinity in bulk water were used to solve for [H+], [HCO3-], [CO32-], [H2CO3] and DIC. For the water in the gill lamella, the carbon added to the water via respiration (0.0002 mol L-1 based on estimated oxygen demand and gill ventilation rate for a 10 g fish at 10 °C (Arnot et al. 2008, Armitage et al. 2013)) was added to DIC, and using this new DIC and the alkalinity the 5 equations were resolved for [H+], [HCO3-], [CO32-], [H2CO3] and pH. […]

Structure (SMILES) | uptake rate constant (kU) ([1]; pH 7.6 (MIX1, MIX2), 10 °C) [L kg^–1 h^–1] | BCF (kU/kT) ([1]; pH 7.6 (MIX1, MIX2)) [L kg^–1] | measured total elimination rate constant (kT) ([1]; pH 7.6 (MIX1, MIX2)) [h^–1] | k2/kT ([2]; pH 7.6 (MIX1, MIX2)) | predicted gill elimination rate constant eq 1 (k2) ([2]; pH 7.6 (MIX1, MIX2)) [h^–1] | Log DMLW,C (membrane-water partition coefficient of the charged form) [3] | pKa used (selected value) [4] | demethylation metabolites observed in fish [5] | factor by which BCF is lower at pH 6.2 than at pH 7.6 ([1]; MIX1 vs MIX1pH) | factor by which kT is greater at pH 6.2 than at pH 7.6 ([1]; MIX1 vs MIX1pH) | uptake rate constant (kU) ([1]; pH 6.2 (MIX1pH)) [L kg^–1 h^–1] | BCF (kU/kT) ([1]; pH 6.2 (MIX1pH)) [L kg^–1] | fraction in gills and skin/mucus [7] [%] | Log DMLW,C (membrane-water partition coefficient of the charged form) [8] | k2/kT ([2]; pH 6.2 (MIX1pH)) | predicted gill elimination rate constant eq 1 (k2) ([2]; pH 6.2 (MIX1pH)) [h^–1] | modeled water resistance as share of the measured uptake resistance ([2]; pH 7.6) | also measured
CCCCCCCCCN(C)C [T9, N,N-dimethylnonylamine] | 2.0 | 35 | 0.059 | 4.6 | 0.27 | 3.07 | C13N(CH3)2 (10.0) | trace levels of the corresponding primary amines | – | – | – | – | – | – | – | – | – | factor by which k2 exceeded kT ([2]; pH 7.6): ~5
CCCCCCCCCCCCNC [S12, N-methyldodecylamine] | 5.5 | 840 | 0.0066 | 0.6 | 0.004 | 5.39 | C12N(CH3)H (10.8) | P12, a metabolite of S12, was also observed | – | – | – | – | – | – | – | – | – | –
CCCCCCCCCCCCCCCCN [P16, Hexadecylamine] | 15.3 | 6100 | – | 0.01 | 0.00003 | – | C16NH2 (10.6) | – | 2 | no pH dependency for kT | 7.8 | 3000 | 73 | 7.90 | 0.09 | 0.00023 | exceeds 50% | factor by which kU is lower at pH 6.2 than at pH 7.6 ([1]; MIX1 vs MIX1pH): 2; k el ([6]; pH 6.2 (MIX1pH)): 7.22e-07 s⁻¹; k el ([6]; pH 7.6 (MIX1, MIX2)): 6.94e-07 s⁻¹; pH dependency of k2 (factor between pH 7.6 and pH 6.2) ([2]; MIX1 vs MIX1pH): 7
CCCCCCCCCCCCCN(C)C [T13, N,N-dimethyltridecylamine] | 15.9 | 3200 | 0.0049 | 1.9 | 0.010 | – | C13N(CH3)2 (10.0) | trace levels of the corresponding primary amines | 9.5 | 3 and 2.8 | 4.7 | 340 | – | 5.88 | 2.8 | 0.039 | exceeds 50% | measured total elimination rate constant (kT) ([1]; pH 6.2 (MIX1pH)): 0.0139 h^–1; BCF compared with REACH B (2000) and vB (5000) thresholds ([1]; pH 7.6): greater than 2000 L kg ww^–1
CCCCCCCCCCCCCCN(C)C [T14, N,N-dimethyltetradecylamine] | 27 | 8100 | 0.0034 | 1.2 | 0.004 | – | C14N(CH3)2 (10.0) | – | – | – | – | – | – | 6.46 | – | – | – | factor by which kU is higher than for Q14 ([1]; pH 7.6): 260; neutral fraction in the water at the fish gill surface [9]: approximately 0.002
CCCCCCCCCCCCCCCCNC [S16, N-methylhexadecylamine] | 22 | 8200 | 0.0027 | 0.03 | 0.00007 | – | C16N(CH3)H (10.8) | P16 was not detected | – | – | – | – | 71 | 7.71 | – | – | – | –
